The text below walks through data of patent US8222430B2, “1-heterodiene derivative and harmful organism control agent” (priority 2008, dated 2012).

One data set has as its system Pseudaletia separate. Briefly: Confirmation of efficacy against Pseudaletia separate (maize leaf soak, insect mortality). It counts as in vivo. Conditions: 120 h, maize leaves soaked 30 seconds, second-instar larvae, after five days, 25° C., humidity 65%, read-out: mortality rate. From the text: Maize leaves were soaked in the resulting chemical solution for 30 seconds and air-dried. Then the leaves were put on Petri dishes lined with a filter paper, followed by inoculating 5 second-instar larvae. […] Mortality was investigated after five days, and the insect mortality rate was obtained. The test was repeated twice.

The subject of data set [1] is Tetranychus urticae with organophosphate resistance. Briefly: Confirmation of efficacy against Tetranychus urticae (bean seedlings, mortality). The note with it: for mortality rate: 125 ppm, sprayed bean seedlings, female adults with organophosphate resistance, after three days, 25° C., humidity 65%.
For a further data set, the system named is Bemisia tabaci. Put plainly: Confirmation of efficacy against Bemisia tabaci (sprayed detached tomato leaves, insect mortality). Conditions: 72 h, B type adults, after three days, 25° C., humidity 65%, read-out: mortality rate. It counts as in vivo. From the text: Detached tomato leaves were sprayed with the resulting chemical solution and air-dried. Then, the leaves were set on flasks in a manner that the surface of the leaves face upward. […] The test was repeated twice.

A further data set deals with Aphis gossypii. Briefly: Confirmation of efficacy against Aphis gossypii (cucumber seedlings, insect mortality). It counts as in vivo. Conditions: 120 h, read-out: mortality rate. An excerpt:
Mortality was investigated after five days, and the insect mortality rate was obtained.
The test was repeated twice.

Setting [2] is: 125 ppm, cucumber seedlings parasitized with offspring, after five days, 25° C., humidity 65%.

Read-outs that look alike come from different tables or passages of the source.

With `Cc1ccc(/N=C2\OCc3ccccc3\C2=C/Sc2ccccc2)cc1` [Compound 5a-2], in the data set on Pseudaletia separate, the mortality at 125 ppm came out at 100%.

Take `Cc1ccc(/N=C2\OC(C)(C)CC\C2=C/Sc2ccccc2)cc1` [Compound 2a-85]: in data set [1], the mortality rate is given as 100%.

`CCCC1CCC(=C\Sc2ccccc2)/C(=N/c2ccc(C)cc2)O1` (centres unmarked) [Compound 2a-84] showed a mortality rate in data set [1] of 100%.

As to `Cc1ccc(/N=C2\SCCC\C2=C/Sc2ccc(F)cc2)cc1` [Compound 2a-78], the mortality rate in data set [1] was determined as 100%.

With `Cc1ccc(/N=C2\OC(c3ccccc3)CC\C2=C/Sc2ccccc2)cc1` (centres unmarked) [Compound 2a-86], the mortality rate in data set [1] was 100%.

As for `Cc1ccc(/N=C2\OC3CCCCC3\C2=C/Sc2ccccc2)cc1` (centres unmarked) [Compound 5a-3], the mortality at 125 ppm with Pseudaletia separate and with Bemisia tabaci was 100% in each case.

On to `Cc1ccc(/N=C2\OC3CCCCC3C\C2=C/Sc2ccccc2)cc1` (centres unmarked) [Compound 5a-1], for which the mortality at 125 ppm with Pseudaletia separate, in the data set on Aphis gossypii (setting [2]) and in the data set with Bemisia tabaci was 100% each time.

As to `Cc1ccc(/N=C2\OC(C)CC\C2=C/Sc2ccccc2)cc1` (centres unmarked) [Compound 2a-83], the mortality rate in data set [1] came to 100%.

Take `C(/Sc1ccccc1)=C1/CCCS/C1=N\c1ccccc1` [Compound 2a-1, (Z)—N-((E)-3-(phenylthiomethylene)tetrahydro-2H-thiopyran-2-ylidene) aniline]: the mortality at 125 ppm with Pseudaletia separate, in the data set on Aphis gossypii (setting [2]) and in the data set on Bemisia tabaci was 100% each time.

As for `C(/Sc1ccccc1)=C1/CCS/C1=N\c1ccccc1` [Compound 1a-1, (Z)—N-((E)-3-(phenylthiomethylene)dihydrothiophen-2(3H)-ylidene)aniline], the mortality at 125 ppm in the data set on Pseudaletia separate and with Bemisia tabaci was 100% throughout.

On to `Clc1ccc(/N=C2\SC3C=CCCC3C\C2=C/Sc2ccccc2)cc1` (centres unmarked) [Compound 5a-5, (4-chloro-phenyl)-{3-[1-phenylsulfanyl-(E)-methylidene]-3,4,4a,5,6,8a-hexahydro-thiochromene-(2Z)-ylidene}-amine], for which the mortality at 125 ppm in the data set on Pseudaletia separate turned out to be 100%; in the data set on Aphis gossypii, 100%; in the data set on Bemisia tabaci, 100%; in data set [1] (Tetranychus urticae, 72 h, read-out: mortality rate) it was 100%.
